Assays:
[1] = PK values in HS-SY-II xenograft model (plasma concentration, LC/MS/MS); assay type: in vivo, mice; conditions: oral twice daily for 7 days; 5 minutes before and 3 hours after the last dose
Description: (§1) HS-SY-II cells were harvested during mid-log phase growth, and resuspended in Hank balanced salt solution with 50% Matrigel (BD Biosciences). Balb/C-nu mice (Charles River Laboratories Japan) received 1×10^7 cells (0.1 mL cell suspension) subcutaneously in the right flank. Mice carrying tumors of approximately 200 mm^3 (31 days after injection) were sorted into treatment groups with similar mean tumor volumes. Compound A or vehicle (0.5% MC+0.1% Tween-80 in water) was administered at the indicated doses on twice a day for 7 days by oral gavage. Each dose was delivered in a volume of 0.2 mL/20 g mouse (10 mL/kg), and adjusted for the last recorded weight of individual animals. Peripheral blood samples were collected at approximately 5 minutes before and 3 hours after the last dose from Compound A-treated mice. After obtaining plasma samples by centrifugation, the analysis for plasma concentrations of Compound A was conducted by the liquid chromatography-tandem mass spectrometry (LC/MS/MS) method. The UPLC system (Acquity, Waters) equipped with a mass spectrometer (Quattro premier, MICROMASS) was used for quantification of Compound A. The concentrations are plotted (n=5) in FIG. 7A. Each bar represents a mean of plasma concentration in each group.

[2] = system: H3K27me3 in HS-SY-II xenograft; test: PD alterations in HS-SY-II xenograft model (tumor H3K27me3 ELISA, 7 days); assay type: in vivo, mice; conditions: for Mean 2 (H3K27me3 level in tumor, fold change to vehicle): vehicle mean = 1; for Mean Diff. (vehicle vs. treated, tumor H3K27me3): Dunnett's multiple comparisons test; for Significant? (vehicle vs. treated, tumor H3K27me3): Dunnett's test, alpha 0.05
Description: as §1
For FIG. 10D, tumors were snap-frozen in liquid nitrogen. Frozen tumor samples were cut into a 20 mg pieces and placed in 500 μL of ice cold nuclear extraction buffer (10 mM Tris-HCl, 10 mM MgCl2, 25 mM KCl, 1% Triton X-100, 8.6% Sucrose, plus lx Halt Protease inhibitor cocktail (1861281, Thermo Scientific)) and homogenized with a handy micro homogenizer. Nuclei were collected by centrifugation at 600 g for 5 minutes at 4° C. and washed once with ice cold PBS. Supernatant was removed and histones extracted for one hour with 100 μL, of 0.4 N cold sulfuric acid. Extracts were clarified by centrifugation at 10,000 g for 10 minutes at 4° C. and transferred to a fresh microcentrifuge tube containing 1 mL of ice cold acetone. Histones were precipitated at -20° C. for overnight, pelleted by centrifugation at 10,000 g for 10 minutes and resuspended in 100 p1 of water. Histones were quantified using the BCA protein assay (23225, Pierce). The diluted histones were coated on Immulon 4HBX plates (3855, Thermo Scientific) overnight and ELISA was performed. Briefly, after blocking with PBS containing 0.05% Tween 20 and 2% bovine serum albumin (BSA), the plates were incubated with H3K27me3 antibody (#9733, Cell Signaling Technology) or total histone H3 antibody (AB1791, Abcam). The plates were further incubated with horseradish peroxidase conjugated anti-rabbit IgG (#7074, Cell Signaling Technology), followed by incubated with TMB substrate (TMBS-0100-01, BioFx Laboratories). Subsequently, the developed colors in the wells were measured using a plate spectrophotometer (SpectraMax 250, Molecular Devices) at 450 nm (reference wavelength 650 nm). The H3K27me3 levels were adjusted to total histone H3, and expressed as fold changes to vehicle control. The values are plotted (n=6) in FIG. 10D. Each bar represents a mean of the values in each group. […] Histones were extracted and quantified, and the levels of H3K27me3 were analyzed as described above. Trimethylation levels of H3K27 in the tumor are plotted (n=5) in FIG. 7B. Each bar represents a mean ±SEM of the trimethylation level in each group.

HS-SY-II cells = test: Gene expression changes in vitro (RT-PCR, normalized to GAPDH); assay type: cell-based, human; conditions: HS-SY-II in vitro culture
Description: ATF3, EGR1, CDKN2A and GAPDH expression were analyzed by using the TaqMan Gene Expression Assays (Life technologies, 4331182) and the TaqMan Probes (Hs00231069_ml, Hs00152928_ml, Hs00233365_ml, and Hs99999905_ml, respectively).

[3] = tumor H3K27me3 across dose groups (FIG. 7B)

plasma concentrations [1]: Dose dependent exposure
SMILES: CCN(c1cc(-c2ccc(CN3CCOCC3)cc2)cc(C(=O)NCc2c(C)cc(C)[nH]c2=O)c1C)C1CCOCC1 [Compound A]
Mean 2 (H3K27me3 level in tumor, fold change to vehicle) ([2]; 125 mg/kg oral twice daily 7 days): 0.7
Mean Diff. (vehicle vs. treated, tumor H3K27me3) ([2]; 125 mg/kg): 0.3
Significant? (vehicle vs. treated, tumor H3K27me3) ([2]; 125 mg/kg): Yes
Mean 2 (H3K27me3 level in tumor, fold change to vehicle) ([2]; 250 mg/kg oral twice daily 7 days): 0.55
Mean Diff. (vehicle vs. treated, tumor H3K27me3) ([2]; 250 mg/kg): 0.45
Significant? (vehicle vs. treated, tumor H3K27me3) ([2]; 250 mg/kg): Yes
Mean 2 (H3K27me3 level in tumor, fold change to vehicle) ([2]; 500 mg/kg oral twice daily 7 days): 0.304
Mean Diff. (vehicle vs. treated, tumor H3K27me3) ([2]; 500 mg/kg, listed as E7435): 0.696
Mean Diff. (vehicle vs. treated, tumor H3K27me3) ([2]; 500 mg/kg, listed as E7438): 0.896
Significant? (vehicle vs. treated, tumor H3K27me3) ([2]; 500 mg/kg): Yes
H3K27me3 levels in tumor tissues ([2]; oral twice daily for 7 days): dose dependent decrease
Is linear trend significant (P <0.05)? [2, 3]: Yes
Post test for linear trend: R squared [2, 3]: 0.9104
Post test for linear trend: Slope [2, 3]: −0.1119
ATF3 and EGR1 expression (HS-SY-II cells): upregulated
CDKN2A expression (HS-SY-II cells): Dose- and time-dependent CDKN2A upregulation

Reference: patent publication US20220218714A1, “METHOD OF TREATING CANCER” (Epizyme, Inc., priority 2013, published 2022)
